Data reported in PubChem BioAssay (NCI).
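Step 1: Grow cells in 96-well plates. Step 2: Expose to compound for 48 hours at 5 concentrations. Step 3: Interpolate endpoints linearly; if unreached, use highest concentration. Abbreviation: GI50, concentration required for 50% inhibition of growth. TGI: concentration producing complete growth inhibition.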

Tests used:
Assay in all cases: NCI-60 cell line screen, 48 h; in the data active means GI50 below about 0.43 µM; inactive means the rest
A498 renal = test system: A498 renal
SK-MEL-5 melanoma = test system: SK-MEL-5 melanoma
LOX IMVI melanoma = test system: LOX IMVI melanoma
CCRF-CEM leukemia = test system: CCRF-CEM leukemia
SF-295 CNS = test system: SF-295 CNS
OVCAR-3 ovarian = test system: OVCAR-3 ovarian
SR leukemia = test system: SR leukemia
RXF 393 renal = test system: RXF 393 renal
SK-MEL-2 melanoma = test system: SK-MEL-2 melanoma
SK-MEL-28 melanoma = test system: SK-MEL-28 melanoma
DU-145 prostate = test system: DU-145 prostate
U251 CNS = test system: U251 CNS
NCI-H460 lung = test system: NCI-H460 lung
ACHN renal = test system: ACHN renal
HOP-92 NSCLC = test system: HOP-92 NSCLC
SN12C renal = test system: SN12C renal
MALME-3M melanoma = test system: MALME-3M melanoma
KM12 colon = test system: KM12 colon
MDA-MB-231 breast = test system: MDA-MB-231 breast
SF-268 CNS = test system: SF-268 CNS
SF-539 CNS = test system: SF-539 CNS
M14 melanoma = test system: M14 melanoma
PC-3 prostate = test system: PC-3 prostate
HT29 colon = test system: HT29 colon
OVCAR-4 ovarian = test system: OVCAR-4 ovarian
786-0 renal = test system: 786-0 renal
HOP-62 NSCLC = test system: HOP-62 NSCLC
SNB-19 CNS = test system: SNB-19 CNS
TK-10 renal = test system: TK-10 renal
T-47D breast = test system: T-47D breast
UACC-62 melanoma = test system: UACC-62 melanoma
NCI-H226 lung = test system: NCI-H226 lung
EKVX NSCLC = test system: EKVX NSCLC
SK-OV-3 ovarian = test system: SK-OV-3 ovarian
RPMI-8226 leukemia = test system: RPMI-8226 leukemia
BT-549 breast = test system: BT-549 breast
NCI-H23 lung = test system: NCI-H23 lung
IGROV1 ovarian = test system: IGROV1 ovarian
HCC-2998 colon = test system: HCC-2998 colon
SNB-75 CNS = test system: SNB-75 CNS
SW-620 colon = test system: SW-620 colon
OVCAR-8 ovarian = test system: OVCAR-8 ovarian
K-562 leukemia = test system: K-562 leukemia
HL-60(TB) leukemia = test system: HL-60(TB) leukemia
HS 578T breast = test system: HS 578T breast
NCI/ADR-RES ovarian = test system: NCI/ADR-RES ovarian
MOLT-4 leukemia = test system: MOLT-4 leukemia
MDA-MB-435 = test system: MDA-MB-435

COc1cnc2c(c1)C(=O)c1c-2n(CCCN2CCOCC2)c(=O)c2cc(F)ccc12
563 nM: TGI (U251 CNS)
16300 nM: TGI (TK-10 renal)
1140 nM: TGI (NCI-H226 lung)
913 nM: TGI (RXF 393 renal)
active: GI50 (A498 renal) 172 nM | GI50 (SK-MEL-5 melanoma) 169 nM | GI50 (LOX IMVI melanoma) 161 nM | GI50 (CCRF-CEM leukemia) 85.3 nM | GI50 (SF-295 CNS) 141 nM | GI50 (OVCAR-3 ovarian) 250 nM | GI50 (SR leukemia) 82.9 nM | GI50 (RXF 393 renal) 226 nM | GI50 (DU-145 prostate) 341 nM | GI50 (U251 CNS) 93.6 nM | GI50 (NCI-H460 lung) 57.3 nM | GI50 (ACHN renal) 177 nM | GI50 (SN12C renal) 320 nM | GI50 (KM12 colon) 316 nM | GI50 (SF-268 CNS) 265 nM | GI50 (SF-539 CNS) 288 nM | GI50 (M14 melanoma) 288 nM | GI50 (PC-3 prostate) 369 nM | GI50 (HT29 colon) 147 nM | GI50 (OVCAR-4 ovarian) 352 nM | GI50 (786-0 renal) 254 nM | GI50 (HOP-62 NSCLC) 187 nM | GI50 (SNB-19 CNS) 264 nM | GI50 (T-47D breast) 118 nM | GI50 (UACC-62 melanoma) 235 nM | GI50 (NCI-H226 lung) 206 nM | GI50 (SK-OV-3 ovarian) 282 nM | GI50 (RPMI-8226 leukemia) 135 nM | GI50 (NCI-H23 lung) 284 nM | GI50 (IGROV1 ovarian) 354 nM | GI50 (SNB-75 CNS) 362 nM | GI50 (SW-620 colon) 149 nM | GI50 (OVCAR-8 ovarian) 246 nM | GI50 (K-562 leukemia) 320 nM | GI50 (HL-60(TB) leukemia) 373 nM | GI50 (NCI/ADR-RES ovarian) 299 nM | GI50 (MOLT-4 leukemia) 106 nM
1270 nM: TGI (SR leukemia)
387 nM: TGI (LOX IMVI melanoma)
1200 nM: TGI (786-0 renal)
3420 nM: TGI (MALME-3M melanoma)
1840 nM: TGI (NCI-H23 lung)
600 nM: TGI (ACHN renal)
2850 nM: TGI (HL-60(TB) leukemia)
926 nM: TGI (UACC-62 melanoma)
23300 nM: TGI (HS 578T breast)
487 nM: TGI (NCI-H460 lung)
911 nM: TGI (A498 renal)
991 nM: TGI (HOP-62 NSCLC)
638 nM: TGI (HT29 colon)
1920 nM: TGI (SK-OV-3 ovarian)
6860 nM: TGI (HOP-92 NSCLC)
864 nM: TGI (SF-295 CNS)
inactive: GI50 (SK-MEL-2 melanoma) 1670 nM | GI50 (SK-MEL-28 melanoma) 1200 nM | GI50 (HOP-92 NSCLC) 858 nM | GI50 (MALME-3M melanoma) 503 nM | GI50 (MDA-MB-231 breast) 1600 nM | GI50 (TK-10 renal) 489 nM | GI50 (EKVX NSCLC) 482 nM | GI50 (BT-549 breast) 523 nM | GI50 (HCC-2998 colon) 2750 nM | GI50 (HS 578T breast) 1500 nM | GI50 (MDA-MB-435) 454 nM
9700 nM: TGI (SNB-75 CNS)
2370 nM: TGI (OVCAR-3 ovarian)
1080 nM: TGI (SF-539 CNS)
804 nM: TGI (RPMI-8226 leukemia)
690 nM: TGI (T-47D breast)
5180 nM: TGI (SK-MEL-2 melanoma)
7000 nM: TGI (SNB-19 CNS)
> 100000 nM: TGI (CCRF-CEM leukemia) | TGI (SK-MEL-28 melanoma) | TGI (DU-145 prostate) | TGI (SN12C renal) | TGI (KM12 colon) | TGI (MDA-MB-231 breast) | TGI (SF-268 CNS) | TGI (M14 melanoma) | TGI (PC-3 prostate) | TGI (OVCAR-4 ovarian) | TGI (EKVX NSCLC) | TGI (BT-549 breast) | TGI (IGROV1 ovarian) | TGI (HCC-2998 colon) | TGI (SW-620 colon) | TGI (OVCAR-8 ovarian) | TGI (K-562 leukemia) | TGI (NCI/ADR-RES ovarian) | TGI (MDA-MB-435)
446 nM: TGI (SK-MEL-5 melanoma)
637 nM: TGI (MOLT-4 leukemia)
